In US20230330243A1, “COMBINATION OF ANTIBODY-DRUG CONJUGATE AND ATR INHIBITOR” (Daiichi Sankyo Company, Limited, priority 2020, published 2023):
Counter-ions that a name gives are not always drawn.

Tests used:
[1] = tested on: NCI-N87; assay: Nuclear cell count growth inhibition, 4 to 8 days (Example 4); format: cell-based; conditions: Homo sapiens; NCI-N87, Gastric, HER2 High; monotherapy
Experimental: (§1) Cells grown in their respective conditions were plated in 96-well plates at optimal density to allow linear proliferation for the duration of the assay (4 to 8 days; duration of treatment is dependent on the growth rate of each cell line). Immediately after plating, the cells were dosed with the indicated compounds for a total volume of 200 µL/well and placed in the incubator. Combinations were conducted as a 6 × 8 concentration response matrix for each combination. At the endpoint, the cells were fixed in 2% PFA for 20 minutes at room temperature. In order to obtain the number of cells at the start of treatment, one additional plate was used for each experiment and fixed after cells attached. The cells were then permeabilised in 0.5% Triton-X100 in PBS for 10 minutes. After a PBS wash, the cells were blocked in 5% FBS in PBS 1h at RT and incubated with primary antibodies in 5% FBS + 0.05% triton overnight at 4° C. After 3 washes in PBS cells were incubated with secondary antibodies in 5% FBS + 0.05% triton with Hoechst33258 for 1h at room temperature. After 3 washes in PBS, the cells were scanned with a Cellinsight instrument with a 10× objective and 9 fields/well. Images were analysed using Columbus for cell count based on nuclear Hoechst staining and nuclear intensity of other biomarkers investigated. […]

[2] = tested on: JIMT-1; assay: Nuclear cell count growth inhibition / synergy, 4 to 8 days (Example 4); format: cell-based; conditions: Homo sapiens; JIMT-1, Breast, HER2 Expressed; monotherapy
Experimental: as §1

[3] = tested on: SK-OV-3; assay: as above; format: cell-based; conditions: Homo sapiens; SK-OV-3, Ovarian, HER2 Moderate; monotherapy
Experimental: as §1

[4] = tested on: NCI-N87 tumors implanted subcutaneously; assay: NCI-N87 xenograft tumor growth inhibition (Example 5); format: in vivo, Female Nude mice; conditions: AZD6738 25 mg/kg PO BID (14 d-on/14-d off); day 40 post treatment
[5] = tested on: ATR pathway in NCI-N87 (gastric cancer) cells; assay: Antibody blots of ATR signaling (Example 6); format: cell-based
Experimental: (§2) Gastric cancer NCI-N87 and breast carcinoma KPL4 cell lines were cultured in RPMI 1640 supplemented with 10 % FCS in a humidified incubator at 37° C. with 5% CO2. Cells were plated in 6-well plates at optimal density to allow linear proliferation for the duration of the assay. […] 7 h, 24 h or 48 h after dosing, whole-cell extracts were obtained by lysis in 50 mM Tris-HC1 pH 7.5, 2% SDS containing protease and phosphatase inhibitors. Lysates were boiled for 5 minutes at 95° C. Protein concentration was measured using a Nanodrop at […] and 50 µg of lysate were loaded in 4-12% Bis Tris gels. Proteins were transferred using iblot2. Primary antibodies (see Table 7) were incubated overnight at 4° C. in 3% milk TBS-tween 0.05% and HRP-conjugated secondary antibodies for 1h at room temperature. Blots were imaged using a G-box.

[6] = tested on: ATR pathway in KPL4 (breast carcinoma) cells; assay: Antibody blots of ATR signaling (Example 6); format: cell-based
Experimental: as §2

[7] = tested on: MDA-MB-468; assay: Nuclear cell count growth inhibition / synergy and IF biomarkers, 4 to 8 days (Example 4); format: cell-based
Experimental: (§3) Cells grown in their respective conditions were plated in 96-well plates at optimal density to allow linear proliferation for the duration of the assay (4 to 8 days; duration of treatment is dependent on the growth rate of each cell line). Immediately after plating, the cells were dosed with the indicated compounds for a total volume of 200 µL/well and placed in the incubator. Combinations were conducted as a 6 × 8 concentration response matrix for each combination. At the endpoint, the cells were fixed in 2% PFA for 20 minutes at room temperature. In order to obtain the number of cells at the start of treatment, one additional plate was used for each experiment and fixed after cells attached. The cells were then permeabilised in 0.5% Triton-X100 in PBS for 10 minutes. After a PBS wash, the cells were blocked in 5% FBS in PBS 1h at RT and incubated with primary antibodies in 5% FBS + 0.05% triton overnight at 4° C. After 3 washes in PBS cells were incubated with secondary antibodies in 5% FBS + 0.05% triton with Hoechst33258 for 1h at room temperature. After 3 washes in PBS, the cells were scanned with a Cellinsight instrument with a 10× objective and 9 fields/well. Images were analysed using Columbus for cell count based on nuclear Hoechst staining and nuclear intensity of other biomarkers investigated. The total cell count/well was used to calculate the relative growth in each well compared to solvent control. […] The mean/well of the sum of the nuclear intensity of the IF biomarkers was also expressed relative to solvent control.

[8] = tested on: KPL4; assay: as above; format: cell-based
Experimental: as §3

[9] = tested on: DU145-SLFN11 KO (CRISPR-Cas9 gene knockout of SLFN11); assay: Nuclear cell count growth inhibition, 4 to 8 days (Example 4); format: cell-based; conditions: Prostate, HER2 Low, monotherapy
Experimental: as §1

[10] = AZD6738 at 1 µM in combination with DS-8201 or exatecan mesylate
[11] = DS-8201 at 30 µg/mL or exatecan mesylate alone, 7 h, 24 h or 48 h

## C[C@@H]1COCCN1c1cc(C2([S@](C)(=N)=O)CC2)nc(-c2ccnc3[nH]ccc23)n1 [AZD6738, 4-{4-[(3R)-3-methylmorpholin-4-yl]-6-[1-((R)-S-methylsulfonimidoyl)cyclopropyl]pyrimidin-2-yl}-1H-pyrrolo[2,3-b]pyridine]
[1]
  GI50: 436 nM
[2]
  GI50: 788 nM
[3]
  GI50: 1010 nM
[4]
  Best response %TGI/regression (maximum TGI): 62%
[5]; AZD6738 at 1 µM in combination
  Activation of pATR and pChk1 and cell cycle arrest induced by DS-8201 or exatecan mesylate: inhibited the activation of pATR and pChk1 and cell cycle arrest
[5]; [10]
  Cell death (cCasp3): increased cell death
  DNA damage (pKap1, gH2AX): exacerbating the DNA damage
[6]; AZD6738 at 1 µM in combination
  Activation of pATR and pChk1 and cell cycle arrest induced by DS-8201 or exatecan mesylate: inhibited the activation of pATR and pChk1 and cell cycle arrest
[6]; [10]
  Cell death (cCasp3): increased cell death
  DNA damage (pKap1, gH2AX): exacerbating the DNA damage
[7]; Homo sapiens, MDA-MB-468, Breast, HER2 Low, monotherapy
  GI50: 2070 nM
[8]; KPL4, Breast, HER2 High, monotherapy
  GI50: > 3000 nM

## CC[C@@]1(O)C(=O)OCc2c1cc1n(c2=O)Cc2c-1nc1cc(F)c(C)c3c1c2[C@@H](N)CC3 [Exatecan mesylate, (1S,9S)-1-amino-9-ethyl-5-fluoro-1,2,3,9,12,15-hexahydro-9-hydroxy-4-methyl-10H,13H-benzo[de]pyrano[3′,4′:6,7]indolizino[1,2-b]quinolin-10,13-dione, reference compound]
[9]
  GI50: 0.45 nM
[5]; [11]
  ATR pathway (pATR-T1989, pChk1-S345) and cell cycle arrest (pCdc2-Y15): induced activation of the ATR pathway
[6]; [11]
  ATR pathway (pATR-T1989, pChk1-S345) and cell cycle arrest (pCdc2-Y15): induced activation of the ATR pathway
[7]; HER2-negative MDA-MB-468, in combination with AZD6738
  Combination activity with AZD6738 (in words): still showed combination activity
[8]; KPL4, single agent
  Biomarkers of ATM (KAP1 pSer824) activation and DNA strand breaks (γH2AX): induced in a concentration dependent manner
[8]; high-HER2 KPL4, in combination with AZD6738, clinically relevant concentrations
  Combination activity with AZD6738 (in words): synergistic activity and cell death
